Assays:
A549 = experiment: cells; parameters: species or system human cancer cell lines; CCK8 cell viability assay, absorbance at 450 nm; settings: Homo sapiens, 72 h
Experimental: (§1) Anticancer activities were evaluated by using human lung cancer cells PC9, human colorectal cancer cells Sw620, and human melanoma cells A375. Toxicity study was conducted by using three types of normal cells, 16HBE (an immortalized human bronchial epithelial cells), NCM460 (a normal human colon mucosal epithelial cell line), and HaCaT (a spontaneously immortalized keratinocyte cell line from adult human skin). All the cell lines were obtained from the Shanghai Institute of Cell Biology, Chinese Academy of Sciences. The cell cultivation media (Gibco) were supplemented with 10% fetal bovine serum, 100 units/ml penicillin, and 100 μg/ml streptomycin. The cells were maintained in a humidified atmosphere with 5% CO2 at 37 °C. Half-maximal inhibitory concentration (IC50) was determined by a CCK8 assay (Dojindo, Tokyo, Japan). Briefly, the cells were seeded in 96-well plates at a density of 3 × 10^3 cells/well and incubated for 24 h at 37 °C. Then the cells were treated with various concentrations of compound and incubated for 72 h. Afterward, 10 μl of CCK8 reagent was added to each well before a further incubation for 0.5–4.0 h at 37 °C. Finally, the absorbance of each well in the 96-well plate was measured at 450 nm using microplate reader. Because the 3-FAS moiety has been proposed to be the pharmacophore of anticancer activities in NATs ([3], [11]), we wished to know whether compounds 1–4 with the alternative 3-HBA moiety, instead of 3-FAS, would retain anticancer activities. The carcinoma cell lines of human lung (PC9), colon (Sw620), and melanoma (A375) were firstly selected to evaluate the activities of them, using as positive control the chemotherapeutic drug cisplatin. […] This is consistent with the activities previously shown for unantimycin A, which structurally differs from 1 at the C4 alkyl group and which has shown moderate cytotoxicity (IC50 = ∼10 μM) against human cervix epidermoid carcinoma, promyelocytic leukemia, and sarcoma cell lines ([13]). […] Further work will be required to establish convincingly that the apparently selective anticancer activities of 1–4 are endowed by the absence of binding to the quinone reduction site of the cytochrome bc1 complex, which makes antimycin A lethal to the mitochondrial respiratory chain ([12], [20]). Moreover, the broad-spectrum anticancer activities of 1–4 were evaluated by using six other carcinoma cell lines (Table S9).

SGC7901 = experiment: cells; parameters: species or system human cancer cell lines; CCK8 cell viability assay, absorbance at 450 nm; settings: Homo sapiens, SGC-7901, 72 h
Experimental: as §1

HT29 = experiment: cells; parameters: species or system human cancer cell lines; CCK8 cell viability assay, absorbance at 450 nm; settings: Homo sapiens, HT-29, 72 h
Experimental: as §1

Hela = experiment: cells; parameters: species or system human cancer cell lines; CCK8 cell viability assay, absorbance at 450 nm; settings: Homo sapiens, 72 h
Experimental: as §1

HCT-8 = experiment: cells; parameters: species or system human cancer cell lines; CCK8 cell viability assay, absorbance at 450 nm; settings: Homo sapiens, 72 h
Experimental: as §1

HepG2 = experiment: cells; parameters: species or system human cancer cell lines; CCK8 cell viability assay, absorbance at 450 nm; settings: Homo sapiens, 72 h
Experimental: as §1

[1] = test system: T1, C=C(O[C@@H]1C=C(C(=O)O)C=C[C@H]1O)C(=O)O; experiment: purified protein; format: biochemical, Streptomyces conglobatus; settings: 50 mM Tris-HCl pH 8.0, 0.5 μM enzyme, 50-300 μM chorismate, 0.5 mM NADH, LDH
T1 construct: catalytic Glu-325

Row | IC50 (A549) [µM] | IC50 (SGC7901) [µM] | IC50 (HT29) [µM] | IC50 (Hela) [µM] | IC50 (HCT-8) [µM] | IC50 (HepG2) [µM] | Molecule | Km [1] [µM] | kcat [1] [s⁻¹]
1 | 7.7 ± 0.07 | 11.9 ± 0.1 | 19.4 ± 0.1 | 18.2 ± 0.2 | 17.9 ± 1.4 | 13.4 ± 0.1 | CCC(C)C1OC(=O)C(C)(C)C(=O)C(Cc2ccccc2)OC(=O)C(C(C)C)OC(=O)C(NC(=O)c2cccc(O)c2)C(C)OC1=O (centres unmarked) [compound 1, unantimycin B] | – | –
2 | 2.99 ± 0.02 | 9.57 ± 0.22 | 14.9 ± 0.3 | 15.3 ± 1.5 | 9.23 ± 0.16 | 15.2 ± 0.7 | CCC(C)C1OC(=O)C(C)(C)C(O)C(Cc2ccccc2)OC(=O)C(C(C)C)OC(=O)C(NC(=O)c2cccc(O)c2)C(C)OC1=O (centres unmarked) [compound 2, 2] | – | –
3 | 2.97 ± 0.01 | 10.1 ± 0.3 | 17.2 ± 0.8 | 23.6 ± 0.5 | 8.95 ± 0.13 | 18.3 ± 0.7 | CC(C)C1OC(=O)C(NC(=O)c2cccc(O)c2)C(C)OC(=O)C(C(C)C)OC(=O)C(C)(C)C(O)C(Cc2ccccc2)OC1=O (centres unmarked) [compound 4, 4] | – | –
4 | 2.32 ± 0.01 | 6.63 ± 0.17 | 17.6 ± 0.9 | 23 ± 0.4 | 10.9 ± 0.8 | 17.5 ± 0.6 | CC(C)C1OC(=O)C(NC(=O)c2cccc(O)c2)C(C)OC(=O)C(C(C)C)OC(=O)C(C)(C)C(=O)C(Cc2ccccc2)OC1=O (centres unmarked) [compound 3, 3] | – | –
5 | – | – | – | – | – | – | Nat-hyg5 (Streptomyces conglobatus) | 54 ± 6 | 0.084 ± 0.003
